IC50 data for 5 compounds are collected here from BindingDB's records for doi:10.1016/j.bioorg.2016.01.008 (King Abdulaziz University, 2016).

Alpha-glucosidase MAL12, sequence (P53341 whole entry): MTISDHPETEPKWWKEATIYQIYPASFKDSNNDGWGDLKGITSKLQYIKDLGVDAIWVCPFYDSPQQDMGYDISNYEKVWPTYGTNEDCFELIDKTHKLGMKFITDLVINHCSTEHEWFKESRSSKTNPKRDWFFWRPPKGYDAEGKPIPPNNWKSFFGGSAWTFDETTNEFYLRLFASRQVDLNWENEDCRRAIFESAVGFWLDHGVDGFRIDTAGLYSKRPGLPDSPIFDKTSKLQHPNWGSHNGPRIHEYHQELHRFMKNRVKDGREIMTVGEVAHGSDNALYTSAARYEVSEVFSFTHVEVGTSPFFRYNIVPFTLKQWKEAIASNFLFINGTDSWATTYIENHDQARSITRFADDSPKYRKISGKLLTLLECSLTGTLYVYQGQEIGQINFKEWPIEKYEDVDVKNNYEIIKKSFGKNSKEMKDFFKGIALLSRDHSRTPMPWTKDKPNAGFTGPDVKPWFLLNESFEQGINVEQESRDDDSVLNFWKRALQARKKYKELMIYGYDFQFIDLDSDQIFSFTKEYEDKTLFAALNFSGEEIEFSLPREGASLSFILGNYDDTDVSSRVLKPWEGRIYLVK

This test deals with Alpha-glucosidase MAL12 (Saccharomyces cerevisiae (strain ATCC 204508 / S288c), UniProt P53341). The experiment in a line: In-vitro Yeast α-Glucosidase Inhibition Assay. As to the method:
α-Glucosidase inhibitory activity was evaluated at 37 °C, by using 0.1M phosphatebuffer (pH6.8) [28]. The enzyme(EC3.2.1.20, Saccharomyces cerevisiae purchased from sigma; catalog # G5003) (0.2 U/mL) was incubated with test compounds and phosphate buffer at 37 °C for 15 min. After 15min of incubation, 0.7 mM of substrate i.e. p-nitrophenyl-α-D-glucopyranoside (Sigma; catalog # N1377) was added and the change in absorbance was recorded at 400 nm for 30min by using spectrophotometer (SpectraMax M2, Molecular Devices, CA, USA).
For orientation: IC50 means the concentration at which inhibition is half-maximal. A higher IC50 goes with a need for much substance. As for `Cc1[nH]nc2c1C(c1ccc(O)c(OCc3ccccc3)c1)C(C#N)=C(N)O2` (stereo not given) [6-Amino-4-(3-(benzyloxy)-4-hydroxyphenyl)-3-methyl-2,4-dihydropyrano[2,3-c]pyrazole-5-carbonitrile (22)], the IC50 worked out at 160 µM.

Regarding `Cc1[nH]nc2c1C(c1ccccc1OCc1ccccc1)C(C#N)=C(N)O2` (stereo not given) [6-Amino-4-(2-(benzyloxy)phenyl)-3-methyl-2,4-dihydropyrano[2,3-c]pyrazole-5-carbonitrile (33)], half-maximal inhibition (IC50) was put at 164 µM.

The compound `Cc1n[nH]c2c1C(c1ccc(Cl)cc1Cl)C(C#N)=C(N)O2` (stereo not given) [6-Amino-4-(2,4-dichlorophenyl)-3-methyl-2,4-dihydropyrano[2,3-c]pyrazole-5-carbonitrile (4)] had an IC50 of 180 µM.

`Cc1[nH]nc2c1C(c1ccc([N+](=O)[O-])cc1)C(C#N)=C(N)O2` (stereo not given) [6-Amino-3-methyl-4-(4-nitrophenyl)-2,4-dihydropyrano[2,3-c]pyrazole-5-carbonitrile (1)] showed an IC50 of 54.2 µM.

Compound `COc1cc(C2C(C#N)=C(N)Oc3n[nH]c(C)c32)ccc1OCc1ccccc1` (stereo not given) [6-Amino-4-(4-(benzyloxy)-3-methoxyphenyl)-3-methyl-2,4-dihydropyrano[2,3-c]pyrazole-5-carbonitrile (30)] yielded an IC50 of 60.8 µM.
